Source: publication PMC11684029, “Discovery of VU6024578/BI02982816: An mGlu1 Positive Allosteric Modulator with Efficacy in Preclinical Antipsychotic and Cognition Models” (Journal of Medicinal Chemistry, 2024)
“And” between values parts separate entries of the source, which are not always exact repeats. Identical values can stand only once. “Also recorded” adds a separate entry of the source.

Legend:
human mGlu1 = biological target: T1, human mGlu1 (Homo sapiens, UniProt Q13255); test: mGlu1 calcium mobilization (triple-add) PAM assay; type: cell-based
T1 construct: expressed in transfected cells; pcDNA5/TO)
Method: Tetracycline-inducible human mGlu1 WT-T-REx-293 cells (Wu et al, Science 2014) were cultured at 37 °C in Dulbecco’s Modified Eagle Medium (DMEM) growth medium containing 10% Tet-tested FBS, 2 mM L-glutamine, 20 mM HEPES, 0.1 mM nonessential amino acids, 1 mM sodium pyruvate, antibiotic/antimycotic, 100 μg/mL hygromycin and 5 μg/mL blasticidin in the presence of 5% CO2. […] The mutant stable cell lines were generated in the same manner as the WT as previously described and cultured in the growth medium described above.
To determine the potency of mGlu1 PAMs in calcium assays, Ca flux was measured as previously described in ACS Chem. Bio. 2014, 9, 2334–2346. Briefly, the day before the assay, human mGlu1 WT-T-REx-293 cells were plated in black-walled, clear-bottomed, poly-D-lysine coated 96-well plates at 80,000 cells/100 μL assay medium (DMEM supplemented with 10% dialyzed FBS, 20 mM HEPES, and 1 mM sodium pyruvate) containing 50 ng/mL of tetracycline to induce mGlu1 expression. The next day, media was removed and the cells were incubated with 50 μL of 1.15 μM Fluo-4 AM dye solution prepared in assay buffer (buffer (Hank’s balanced salt solution, 20 mM HEPES, and 2.5 mM probenecid) for 45 min at 37 °C, the dye was removed and replaced with 45 μL of assay buffer. Then, calcium flux was measured using Flexstation II (Molecular Devices, Sunnyvale, CA). Compounds serially diluted at half log concentrations in DMSO were further diluted in assay buffer. The compounds or DMSO vehicle were added to cells and incubated for 2.5 min and an EC20 concentration of glutamate was added and incubated for 1 min. An ECmax concentration of glutamate was also added to cells that were incubated with DMSO vehicle to accurately calculate the EC20 calcium response. Data were normalized by subtracting the basal florescent peak before EC20 agonist addition from the maximal peak elicited by EC20 agonist and PAMs. Using GraphPad Prism 5.0, the concentration response curves were generated and the potencies of the mGlu1 PAMs were determined.

brain homogenate binding = type: in vitro ADME, mouse; settings: fraction unbound
[1] = intrinsic clearance, predicted hepatic clearance; type: in vitro ADME, rat; settings: in vitro predicted hepatic clearance
Method: Human or rat hepatic microsomes (0.5 mg/mL) and 1 μM test compound were incubated in 100 mM potassium phosphate pH 7.4 buffer with 3 mM MgCl2 at 37 °C with constant shaking. After a 5 min preincubation, the reaction was initiated by addition of NADPH (1 mM). At selected time intervals (0, 3, 7, 15, 25, and 45 min), aliquots were taken and subsequently placed into a 96-well plate containing cold acetonitrile with internal standard (50 ng/mL carbamazepine). Plates were then centrifuged at 3000 rcf (4 °C) for 10 min, and the supernatant was transferred to a separate 96-well plate and diluted 1:1 with water for LC/MS/MS analysis. The in vitro half-life (T1/2, min, eq 1), intrinsic clearance (CLint, mL/min/kg, eq 2) and subsequent predicted hepatic clearance (CLhep, mL/min/kg, eq 3) was determined employing the following equations: [drawing 2] 1 where k represents the slope from linear regression analysis of the natural log percent remaining of test compound as a function of incubation time [drawing 3] 2
^ascale-up factors: of 20 (human) or 45 (rat) [drawing 4] 3 where Qh (hepatic blood flow, mL/min/kg) is 21 (human) or 70 (rat).

rat PO PBL study = type: in vivo; settings: 3 mg/kg PO
From the text: Thus, 19d was a stable chemical entity in vivo. […] Overall, the rat PK and CNS penetration was supportive of in vivo work and progression down the development flow-chart.

Sprague–Dawley rats = test: catalepsy (latency to withdraw); type: in vivo; settings: rat, doses up to 10 mg/kg p.o., 100 min postdose
Method: (§1) In order to enable our target validation work, we first profiled PAM 19d in a rat locomotor battery to ensure that pharmacodynamic efficacy was not mistaken for gross effects on locomotion.[20] […] PK was performed in parallel to establish a PK/PD relationship.[24]
Control rats were injected with 1.5 mg/kg of haloperidol i.p. (dissolved in 8% lactic acid and taken to volume of 50 mL with sterile water) and were returned to their home cage for 90 min. Cataleptic behavior is determined by placing the forelimbs on a bar raised 6 cm above the table and recording the amount of time it takes for the rat to withdraw the forelimbs with a cutoff of 60 s. Data are expressed as mean latency to withdraw + SEM or percent inhibition of catalepsy + SEM.

[2] = PK in parallel to rat locomotor battery; type: in vivo
Method: as §1
Figure S2. 19d assessed in rat locomotor battery A: Exposure of 19d in the locomotor battery experiment. […]

[3] = PAM, calcium flux, EC20 glutamate

T1 sequence (Q13255 19-1194): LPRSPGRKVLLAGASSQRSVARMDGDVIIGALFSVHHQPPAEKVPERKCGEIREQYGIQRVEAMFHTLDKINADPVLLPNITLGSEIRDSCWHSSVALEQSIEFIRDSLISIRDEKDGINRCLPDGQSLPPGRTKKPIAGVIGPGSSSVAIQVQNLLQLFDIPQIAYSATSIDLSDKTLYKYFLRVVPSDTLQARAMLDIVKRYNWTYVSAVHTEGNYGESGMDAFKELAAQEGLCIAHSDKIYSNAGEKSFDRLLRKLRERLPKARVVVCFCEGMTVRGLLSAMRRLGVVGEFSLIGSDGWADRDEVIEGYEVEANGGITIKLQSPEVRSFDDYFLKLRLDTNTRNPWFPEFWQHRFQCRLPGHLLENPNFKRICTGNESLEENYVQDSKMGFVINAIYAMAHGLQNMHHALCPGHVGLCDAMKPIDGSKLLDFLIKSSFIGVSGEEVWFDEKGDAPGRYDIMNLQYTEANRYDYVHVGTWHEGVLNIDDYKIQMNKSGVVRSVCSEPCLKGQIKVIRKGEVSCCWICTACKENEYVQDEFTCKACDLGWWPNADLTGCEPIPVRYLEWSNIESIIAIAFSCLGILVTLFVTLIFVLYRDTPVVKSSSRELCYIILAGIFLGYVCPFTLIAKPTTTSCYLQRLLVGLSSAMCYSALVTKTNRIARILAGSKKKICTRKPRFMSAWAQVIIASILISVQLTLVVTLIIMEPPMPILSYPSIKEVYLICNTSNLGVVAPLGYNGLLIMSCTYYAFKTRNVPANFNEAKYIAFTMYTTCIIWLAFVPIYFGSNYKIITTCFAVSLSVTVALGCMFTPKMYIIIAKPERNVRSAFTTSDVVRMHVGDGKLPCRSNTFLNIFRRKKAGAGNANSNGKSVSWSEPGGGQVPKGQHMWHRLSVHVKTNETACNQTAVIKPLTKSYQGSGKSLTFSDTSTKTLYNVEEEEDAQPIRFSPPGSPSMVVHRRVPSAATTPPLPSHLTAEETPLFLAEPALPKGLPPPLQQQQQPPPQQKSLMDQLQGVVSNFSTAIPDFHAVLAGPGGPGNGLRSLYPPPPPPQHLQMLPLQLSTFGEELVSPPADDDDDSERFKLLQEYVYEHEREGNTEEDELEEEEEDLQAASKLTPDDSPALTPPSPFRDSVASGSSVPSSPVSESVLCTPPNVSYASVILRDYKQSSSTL

Cn1nc(-c2ccnn2C)cc1CNC(=O)c1cc(-c2ccco2)ccc1Cl [Compound 19d, 2-Chloro-N-((1,2′-dimethyl-1H,2’H-[3,3′-bipyrazol]-5-yl)methyl)-5-(furan-2-yl)benzamide]
EC50 (human mGlu1; [3]): 0.054 µM | human mGlu1 Glumax (human mGlu1; [3]): 83% | human mGlu1 pEC50 (human mGlu1; n = 77): 7.31 ± 0.02 | receptor desensitization (antagonist/EC80 window) (human mGlu1; triple-add protocol): only slight mGlu1 desensitization; also recorded: little receptor desensitization | intrinsic agonist activity (compound alone window) (human mGlu1; triple-add protocol, up to 30 μM): no agonism; also recorded: no intrinsic agonist activity | fu (brain), mouse (brain homogenate binding): 0.081 | CLhep, rat [1]: 39 mL/min/kg and 39.3 mL/min/kg | unbound brain concentration Br[unbound] (rat PO PBL study; at Tmax): 100 nM | Kp (rat PO PBL study; brain, 15 min to 7 h): ~0.5 | catalepsy (Sprague–Dawley rats): lack of effect; also recorded: without effect | Kp ([2]; brain, rat locomotor battery PK): ~0.75 | free brain concentration ([2]; rat, 10 mg/kg): 134 nM | free brain concentration over in vitro EC50 ([2]; rat, 10 mg/kg): ~2.9 fold
